In ChEMBL document CHEMBL1201861, “Genomics of Drug Sensitity in Cancer screening data, Wellcome Trust Sanger Institute”:

Key:
Experiment in all cases: cells
HH = type: functional, cell-based, Homo sapiens; conditions: Homo sapiens, HH
Description: SANGER: Inhibition of human HH cell growth in a cell viability assay.

Becker = type: functional, cell-based, Homo sapiens; conditions: Homo sapiens, Becker
Description: SANGER: Inhibition of human Becker cell growth in a cell viability assay.

NCI-H1304 = type: functional, cell-based, Homo sapiens; conditions: Homo sapiens, NCI-H1304
Description: SANGER: Inhibition of human NCI-H1304 cell growth in a cell viability assay.

NEC8 = type: functional, cell-based, Homo sapiens; conditions: Homo sapiens, NEC8
Description: SANGER: Inhibition of human NEC8 cell growth in a cell viability assay.

NCI-H209 = type: functional, cell-based, Homo sapiens; conditions: Homo sapiens, NCI-H209
Description: SANGER: Inhibition of human NCI-H209 cell growth in a cell viability assay.

MHH-NB-11 = type: functional, cell-based, Homo sapiens; conditions: Homo sapiens, MHH-NB-11
Description: SANGER: Inhibition of human MHH-NB-11 cell growth in a cell viability assay.

OCUB-M = type: functional, cell-based; conditions: Homo sapiens
Description: SANGER: Inhibition of human OCUB-M cell growth in a cell viability assay.

A498 = type: functional, cell-based, Homo sapiens; conditions: Homo sapiens, A498
Description: SANGER: Inhibition of human A498 cell growth in a cell viability assay.

NCI-N87 = type: functional, cell-based; conditions: Homo sapiens
Description: SANGER: Inhibition of human NCI-N87 cell growth in a cell viability assay.

BB49-HNC = type: functional, cell-based, Homo sapiens; conditions: Homo sapiens, BB49-HNC
Description: SANGER: Inhibition of human BB49-HNC cell growth in a cell viability assay.

LS-411N = type: functional, cell-based, Homo sapiens; conditions: Homo sapiens, LS-411N
EFO-27 = type: functional, cell-based; conditions: Homo sapiens
Description: SANGER: Inhibition of human EFO-27 cell growth in a cell viability assay.

C8166 = type: functional, cell-based, Homo sapiens; conditions: Homo sapiens, C8166
Description: SANGER: Inhibition of human C8166 cell growth in a cell viability assay.

MPP-89 = type: functional, cell-based, Homo sapiens; conditions: Homo sapiens, MPP-89
Description: SANGER: Inhibition of human MPP-89 cell growth in a cell viability assay.

NCI-H1581 = type: functional, cell-based, Homo sapiens; conditions: Homo sapiens, NCI-H1581
Description: SANGER: Inhibition of human NCI-H1581 cell growth in a cell viability assay.

Ramos-2G6-4C10 = type: functional, cell-based, Homo sapiens; conditions: Homo sapiens, Ramos-2G6-4C10
Description: SANGER: Inhibition of human Ramos-2G6-4C10 cell growth in a cell viability assay.

SW 962 = type: functional, cell-based, Homo sapiens; conditions: Homo sapiens, SW 962
Description: SANGER: Inhibition of human SW962 cell growth in a cell viability assay.

NB5 = type: functional, cell-based, Homo sapiens; conditions: Homo sapiens, NB5
Description: SANGER: Inhibition of human NB5 cell growth in a cell viability assay.

CTB-1 = type: functional, cell-based, Homo sapiens; conditions: Homo sapiens, CTB-1
Description: SANGER: Inhibition of human CTB-1 cell growth in a cell viability assay.

NH-12 = type: functional, cell-based, Homo sapiens; conditions: Homo sapiens, NH-12
Description: SANGER: Inhibition of human NH-12 cell growth in a cell viability assay.

TGBC24TKB = type: functional, cell-based; conditions: Homo sapiens
Description: SANGER: Inhibition of human TGBC24TKB cell growth in a cell viability assay.

ATN-1 = type: functional, cell-based, Homo sapiens; conditions: Homo sapiens, ATN-1
Description: SANGER: Inhibition of human ATN-1 cell growth in a cell viability assay.

RS4-11 = type: functional, cell-based, Homo sapiens; conditions: Homo sapiens, RS4-11
Description: SANGER: Inhibition of human RS4-11 cell growth in a cell viability assay.

A388 = type: functional, cell-based; conditions: Homo sapiens
Description: SANGER: Inhibition of human A388 cell growth in a cell viability assay.

NCI-H1299 = type: functional, cell-based; conditions: Homo sapiens
Description: SANGER: Inhibition of human NCI-H1299 cell growth in a cell viability assay.

EW-1 = type: functional, cell-based, Homo sapiens; conditions: Homo sapiens, EW-1
Description: SANGER: Inhibition of human EW-1 cell growth in a cell viability assay.

GAK = type: functional, cell-based, Homo sapiens; conditions: Homo sapiens, GAK
Description: SANGER: Inhibition of human GAK cell growth in a cell viability assay.

COLO-320-HSR = type: functional, cell-based, Homo sapiens; conditions: Homo sapiens, COLO-320-HSR
Description: SANGER: Inhibition of human COLO-320-HSR cell growth in a cell viability assay.

no-10 = type: functional, cell-based, Homo sapiens; conditions: Homo sapiens
Description: SANGER: Inhibition of human no-10 cell growth in a cell viability assay.

A253 cell line = type: functional, cell-based, Homo sapiens; conditions: Homo sapiens, A253
Description: SANGER: Inhibition of human A253 cell growth in a cell viability assay.

SK-MEL-1 = type: functional, cell-based, Homo sapiens; conditions: Homo sapiens, SK-MEL-1
Description: SANGER: Inhibition of human SK-MEL-1 cell growth in a cell viability assay.

RPMI-8866 = type: functional, cell-based, Homo sapiens; conditions: Homo sapiens, RPMI-8866
Description: SANGER: Inhibition of human RPMI-8866 cell growth in a cell viability assay.

UACC-257 = type: functional, cell-based, Homo sapiens; conditions: Homo sapiens, UACC-257
Description: SANGER: Inhibition of human UACC-257 cell growth in a cell viability assay.

NCI-H1355 = type: functional, cell-based, Homo sapiens; conditions: Homo sapiens, NCI-H1355
Description: SANGER: Inhibition of human NCI-H1355 cell growth in a cell viability assay.

BPH-1 = type: functional, cell-based; conditions: Homo sapiens
Description: SANGER: Inhibition of human BPH-1 cell growth in a cell viability assay.

COLO-668 = type: functional, cell-based, Homo sapiens; conditions: Homo sapiens, COLO-668
Description: SANGER: Inhibition of human COLO-668 cell growth in a cell viability assay.

EW-11 = type: functional, cell-based, Homo sapiens; conditions: Homo sapiens, EW-11
Description: SANGER: Inhibition of human EW-11 cell growth in a cell viability assay.

TGW = type: functional, cell-based, Homo sapiens; conditions: Homo sapiens, TGW
Description: SANGER: Inhibition of human TGW cell growth in a cell viability assay.

K562 = type: functional, cell-based, Homo sapiens; conditions: Homo sapiens, K562
Description: SANGER: Inhibition of human K-562 cell growth in a cell viability assay.

MSTO-211H = type: functional, cell-based, Homo sapiens; conditions: Homo sapiens, MSTO-211H
Description: SANGER: Inhibition of human MSTO-211H cell growth in a cell viability assay.

LB996-RCC = type: functional, cell-based, Homo sapiens; conditions: Homo sapiens, LB996-RCC
Description: SANGER: Inhibition of human LB996-RCC cell growth in a cell viability assay.

SHP77 = type: functional, cell-based, Homo sapiens, SHP-77; conditions: Homo sapiens, SHP77
Description: SANGER: Inhibition of human SHP-77 cell growth in a cell viability assay.

IST-MES1 = type: functional, cell-based, Homo sapiens; conditions: Homo sapiens, IST-MES1
Description: SANGER: Inhibition of human IST-MES1 cell growth in a cell viability assay.

KLE = type: functional, cell-based; conditions: Homo sapiens
Description: SANGER: Inhibition of human KLE cell growth in a cell viability assay.

DEL = type: functional, cell-based, Homo sapiens; conditions: Homo sapiens, DEL
Description: SANGER: Inhibition of human DEL cell growth in a cell viability assay.

RKO = type: functional, cell-based, Homo sapiens; conditions: Homo sapiens, RKO
Description: SANGER: Inhibition of human RKO cell growth in a cell viability assay.

ALL-PO = type: functional, cell-based, Homo sapiens; conditions: Homo sapiens, ALL-PO
Description: SANGER: Inhibition of human ALL-PO cell growth in a cell viability assay.

L-428 = type: functional, cell-based, Homo sapiens; conditions: Homo sapiens, L-428
Description: SANGER: Inhibition of human L-428 cell growth in a cell viability assay.

HEL = type: functional, cell-based, Homo sapiens; conditions: Homo sapiens, HEL
Description: SANGER: Inhibition of human HEL cell growth in a cell viability assay.

OAW-42 = type: functional, cell-based; conditions: Homo sapiens
Description: SANGER: Inhibition of human OAW-42 cell growth in a cell viability assay.

LB1047-RCC = type: functional, cell-based, Homo sapiens; conditions: Homo sapiens, LB1047-RCC
Description: SANGER: Inhibition of human LB1047-RCC cell growth in a cell viability assay.

## CN(C)CCOc1ccc(-c2nc(-c3ccncc3)c(-c3ccc4c(c3)CC/C4=N\O)[nH]2)cc1 [SB590885]
HH
  IC50: > 5 µM
Becker
  IC50: > 5 µM
NCI-H1304
  IC50: > 5 µM
NEC8
  IC50: > 5 µM
NCI-H209
  IC50: > 5 µM
MHH-NB-11
  IC50: > 5 µM
OCUB-M
  IC50: > 5 µM
A498
  IC50: > 5 µM
NCI-N87
  IC50: > 5 µM
BB49-HNC
  IC50: > 5 µM
LS-411N
  IC50: > 5 µM
EFO-27
  IC50: > 5 µM
C8166
  IC50: > 5 µM
MPP-89
  IC50: > 5 µM
NCI-H1581
  IC50: > 5 µM
Ramos-2G6-4C10
  IC50: > 5 µM
SW 962
  IC50: > 5 µM
NB5
  IC50: > 5 µM
CTB-1
  IC50: > 5 µM
NH-12
  IC50: > 5 µM
TGBC24TKB
  IC50: > 5 µM
ATN-1
  IC50: > 5 µM
RS4-11
  IC50: > 5 µM
A388
  IC50: > 5 µM
NCI-H1299
  IC50: > 5 µM
EW-1
  IC50: > 5 µM
GAK
  IC50: > 5 µM
COLO-320-HSR
  IC50: > 5 µM
no-10
  IC50: > 5 µM
A253 cell line
  IC50: > 5 µM
SK-MEL-1
  IC50: > 5 µM
RPMI-8866
  IC50: > 5 µM
UACC-257
  IC50: 1130 nM
NCI-H1355
  IC50: > 5 µM
BPH-1
  IC50: > 5 µM
COLO-668
  IC50: > 5 µM
EW-11
  IC50: > 5 µM
TGW
  IC50: > 5 µM
K562
  IC50: > 5 µM
MSTO-211H
  IC50: > 5 µM
LB996-RCC
  IC50: > 5 µM
SHP77
  IC50: > 5 µM
IST-MES1
  IC50: > 5 µM
KLE
  IC50: > 5 µM
DEL
  IC50: > 5 µM
RKO
  IC50: > 5 µM
ALL-PO
  IC50: > 5 µM
L-428
  IC50: > 5 µM
HEL
  IC50: > 5 µM
OAW-42
  IC50: > 5 µM
LB1047-RCC
  IC50: > 5 µM
